Assays:
Assay type in all cases: cell-based
PR = molecular target: T1, PR (Rattus norvegicus, UniProt Q63449); test: PR transactivation in HEK-293 cells
T1 construct: expressed in transfected cells
T1 sequence (Q63449 1-923): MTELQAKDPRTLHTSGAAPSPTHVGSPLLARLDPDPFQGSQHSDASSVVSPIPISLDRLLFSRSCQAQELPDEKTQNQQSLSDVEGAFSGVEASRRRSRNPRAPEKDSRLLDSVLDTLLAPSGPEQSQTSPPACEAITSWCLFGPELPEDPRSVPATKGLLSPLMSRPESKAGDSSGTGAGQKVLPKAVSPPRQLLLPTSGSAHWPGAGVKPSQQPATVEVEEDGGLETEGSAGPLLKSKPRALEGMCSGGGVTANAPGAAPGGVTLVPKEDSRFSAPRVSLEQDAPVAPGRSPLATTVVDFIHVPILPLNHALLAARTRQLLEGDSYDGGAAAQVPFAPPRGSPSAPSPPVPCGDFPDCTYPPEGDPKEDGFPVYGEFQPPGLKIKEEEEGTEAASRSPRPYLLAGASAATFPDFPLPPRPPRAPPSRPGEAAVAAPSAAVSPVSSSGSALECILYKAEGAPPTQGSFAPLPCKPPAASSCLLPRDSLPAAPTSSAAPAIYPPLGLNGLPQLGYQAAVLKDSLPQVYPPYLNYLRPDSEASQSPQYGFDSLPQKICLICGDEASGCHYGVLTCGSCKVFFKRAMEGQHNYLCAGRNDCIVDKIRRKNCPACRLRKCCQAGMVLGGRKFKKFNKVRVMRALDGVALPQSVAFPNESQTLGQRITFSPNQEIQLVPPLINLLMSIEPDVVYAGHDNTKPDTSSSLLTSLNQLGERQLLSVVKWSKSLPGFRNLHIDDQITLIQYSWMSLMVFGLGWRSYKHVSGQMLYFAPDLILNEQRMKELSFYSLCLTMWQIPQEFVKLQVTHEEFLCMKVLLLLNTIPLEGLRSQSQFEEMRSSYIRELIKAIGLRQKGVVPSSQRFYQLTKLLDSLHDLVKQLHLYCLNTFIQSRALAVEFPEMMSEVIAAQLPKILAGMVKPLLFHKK
Experimental: (§1) Rat GR, MR, PR, ER-α and ER-β were individually cloned into a pCR3.1 vector backbone. Sequencing was performed to verify the absence of any mutations. HEK-293 cells were plated at 90,000 cells per well of a 24 well plate in Dulbecco's Minimal Essential Media supplemented with 5% charcoal-stripped FBS. […] Luciferase assays were performed 48 h after transfection. Transcriptional activation values are represented as firefly luciferase normalized to renilla luciferase.

MR = molecular target: T2, MR (Rattus norvegicus, UniProt P22199); test: MR transactivation in HEK-293 cells; conditions: 1 nM
T2 construct: expressed in transfected cells
T2 sequence (P22199 1-981): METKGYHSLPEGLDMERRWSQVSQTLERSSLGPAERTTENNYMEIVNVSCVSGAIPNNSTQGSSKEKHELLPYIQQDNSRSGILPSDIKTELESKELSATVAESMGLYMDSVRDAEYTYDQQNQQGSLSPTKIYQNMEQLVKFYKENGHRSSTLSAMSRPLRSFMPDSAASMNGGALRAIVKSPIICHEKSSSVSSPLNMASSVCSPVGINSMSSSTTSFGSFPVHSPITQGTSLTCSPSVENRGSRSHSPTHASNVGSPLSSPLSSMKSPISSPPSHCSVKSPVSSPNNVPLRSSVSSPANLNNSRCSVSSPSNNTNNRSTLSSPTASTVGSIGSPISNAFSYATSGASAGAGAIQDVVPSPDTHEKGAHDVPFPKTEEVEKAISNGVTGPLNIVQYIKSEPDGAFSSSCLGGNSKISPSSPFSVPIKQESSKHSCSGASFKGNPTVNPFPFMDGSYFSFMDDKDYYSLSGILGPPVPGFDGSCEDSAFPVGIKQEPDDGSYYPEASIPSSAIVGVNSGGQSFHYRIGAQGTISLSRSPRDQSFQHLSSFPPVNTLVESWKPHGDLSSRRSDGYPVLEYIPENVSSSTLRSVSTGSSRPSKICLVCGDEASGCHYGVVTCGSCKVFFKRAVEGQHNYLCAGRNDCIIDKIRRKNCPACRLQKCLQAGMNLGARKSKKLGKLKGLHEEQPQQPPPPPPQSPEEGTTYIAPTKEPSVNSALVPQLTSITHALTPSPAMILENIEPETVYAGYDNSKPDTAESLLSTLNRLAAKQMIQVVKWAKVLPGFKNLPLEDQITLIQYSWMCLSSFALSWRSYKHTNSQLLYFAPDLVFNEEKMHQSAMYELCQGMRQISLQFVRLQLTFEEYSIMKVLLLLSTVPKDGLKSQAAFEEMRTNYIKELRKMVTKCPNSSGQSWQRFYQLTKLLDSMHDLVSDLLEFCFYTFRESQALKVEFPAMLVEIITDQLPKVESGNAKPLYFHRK
Experimental: as §1

HCI-13 tumor fragments = test: HCI-13 ex vivo sponge culture, real time PCR; conditions: for reversal of pS2 gene expression inhibited by Formula IX: 100 nM PMA or 100 ng/mL EGF before 1 μM Formula IX
Experimental: HCI-13 tumors grown in female mice were allowed to reach 500-1000 mm^3 before the animals were sacrificed and the tumors were excised to be used for sponge culture. Patient specimens frozen in liquid nitrogen in freezing medium were used for sponge culture. […] Tumors were sliced into small pieces (˜1 mm^3) and incubated on pre-soaked gelatin sponges (5 fragments/sponge) in 12 well plates containing 1.5 mL medium (MEM+10% FBS+2 mM L-glutamine+10 μg/mL insulin+10 μg/mL hydrocortisone+penicillin:streptomycin). The cultures were performed in triplicates for HCI-13 and singly for patient specimens. Pooled samples (n=5/sponge) from each sponge constituted one sample. Tissues were harvested after 3 days of treatment, RNA extracted, and expression of various genes measured. Although the same procedure was adopted for specimens obtained from breast cancer patients, the specimens were cultured singly (n=5/sponge=one sample) and not in triplicates as performed for HCI-13.

[1] = test system: MDA-MB-231 triple negative breast cancer cells; test: SRB cell viability, MDA-MB-231 cells infected with AR adenovirus
Experimental: (§2) The SRB assay was used to determine cell number during cytotoxocity experiments. The following protocol was used: • 1. Cells were detached with 0.25% trypsin. • 2. Experimental cultures were cultured in 96-well microtiter plates (200 μL growth medium per well; 1,000-200,000 cells per well). • 3. Cultures were fixed with 50 μL 50% TCA (4° C.). (see cell fixation protocol for details). • 4. Fixed cells were stained with 50 μL 0.4% (wt/vol) SRB in 1% acetic acid for 10 minutes. • 5. SRB was removed and the cultures were quickly* rinsed 5 times with 1% acetic acid to remove unbound dye.** • 6. Cultures were air-dried overnight until there was no visible moisture. • 7. The cellular protein-bound SRB was dissolved with 200 μL unbuffered Tris base (10 mM, pH 10.5) for 30 minutes on a rocking platform shaker. • 8. Absorbance was read at 540 nm. * quickly performing rinsing process was to prevent desorption of protein-bound SRB ** completely removed residual wash solution by sharply flicking plates over sink.
(§3) The following protocol was used for fixing cells: • a. 50 μL of 50% TCA (4° C.) was gently layered on the top of growth medium in each well to make a final TCA concentration of 10%. • b. Cultures were incubated at 4° C. for 1 hour. • c. Cultures were washed 5 times with tap water to remove TCA, growth medium, low-molecular-weight metabolites, and serum protein. • d. Plates were air-dried until there was no visible moisture.
Cells were treated in charcoal stripped FBS (FIGS. 4A, 4C, 4E, 4G, 4I, 4K, 4M and 4O) or full serum (FIGS. 4B, 4D, 4F, 4H, 4J, 4L, 4N and 4P) for 3 days, fixed and stained with […] (SRB) to measure cell viability. Anti-proliferative IC50 values were calculated in breast cancer cells and compared to transactivation values, i.e., EC50 (agonists) and IC50 (antagonists) values, generated in HEK-293 cells.

MDA-MB-231-AR cells = test: Morphology of MDA-MB-231-AR cells; conditions: 3 days
Experimental: MDA-MB-231 cells were stably transfected with AR using lentivirus. […] Live cells were visualized using a light-microscope and photographed. The cells were imaged at the same magnification and under the same microscopic conditions.
MDA-MB-231 cells were stably transfected with AR using lentivirus and were treated with vehicle or AR agonists at the indicated concentrations. At the end of 3 days of incubation, the cells were imaged under a microscope (40×).

[2] = test system: HCC-38 triple negative breast cancer cells; test: SRB cell viability, HCC-38 cells infected with AR adenovirus; conditions: 3 days
Experimental: as §2
as §3, with “Plates were air-dried until there was no visible moisture.” left out

For `CC(=O)[C@H]1CC[C@H]2[C@@H]3CCC4=CC(=O)CC[C@]4(C)[C@H]3CC[C@]12C` [Progesterone, progesterone, reference compound], the PR activation (PR; 1 nM) was 23 folds.
With `C[C@]12CCC(=O)C=C1CC[C@@H]1[C@@H]2[C@@H](O)C[C@]2(C=O)[C@@H](C(=O)CO)CC[C@@H]12` [aldosterone, reference compound] the “MR activity, induction” value (MR) was 60 fold.
With `C[C@@](O)(COc1ccc(C#N)cc1)C(=O)Nc1ccc(C#N)c(C(F)(F)F)c1` [R-enantiomer of Formula IX, (R)—N-(4-cyano-3-(trifluoromethyl)phenyl)-3-(4-cyanophenoxy)-2-hydroxy-2-methylpropanamide] the IC50 (PR) was 1690 nM.
In the case of `CC#C[C@]1(O)CC[C@H]2[C@@H]3CCC4=CC(=O)CCC4=C3[C@@H](c3ccc(N(C)C)cc3)C[C@@]21C` [RU486, reference compound], the IC50 (PR) is reported as 0.048 nM.
In the case of EGF: epidermal growth factor, the “reversal of pS2 gene expression inhibited by Formula IX” value (HCI-13 tumor fragments) is reported as “only marginally reversed”.
`CCCCCCCCCCCCCC(=O)O[C@@H]1[C@@H](C)[C@@]2(O)[C@@H](C=C(CO)C[C@]3(O)C(=O)C(C)=C[C@@H]23)[C@@H]2C(C)(C)[C@]12OC(C)=O` [PMA, phorbol 12-myristate 13-acetate] was tested, and the “reversal of pS2 gene expression inhibited by Formula IX” value (HCI-13 tumor fragments) was “completely reversed”.
In the case of `C[C@]12CCC(=O)C[C@@H]1CC[C@@H]1[C@@H]2CC[C@]2(C)[C@@H](O)CC[C@@H]12` [DHT, 5α-dihydrotestosterone, reference compound], the “inhibition of ER-induced pS2 and PR gene expression” value (HCI-13 tumor fragments; 10 nM DHT, 1 μM Formula IX, 100 nM fulvestrant, 3 days) is reported as “effective”, the “AR-target gene FKBP5 expression” value (HCI-13 tumor fragments; 3 days) is reported as “induced” and the MKI67 expression (HCI-13 tumor fragments; 3 days) is reported as “inhibited”. The “growth inhibitory effects in the presence of bicalutamide” value ([1]; AR-positive cells, 10 μM bicalutamide) was “weakened growth inhibitory effects”, the cell growth ([1]; cells with AR, 3 days, SRB) was “inhibited” and the cell morphology (MDA-MB-231-AR cells) was “altered the morphology into a more anchored phenotype”. The cell growth [2] was “inhibited”.

Source: US20220257552A1, “METHODS OF PRESCREENING AND TREATING BREAST CANCERS WITH SELECTIVE ANDROGEN RECEPTOR MODULATORS” (priority 2021, published 2022)
